Results reported in patent US20060084695A1, “Compositions and treatments for inhibiting kinase and/or HMG-CoA reductase” (priority 2004, published 2006).

Test system: oxazolone-induced mouse ear swelling
Test: Inhibition of oxazolone-induced mouse ear swelling (topical inflammation model)
Assay type: in vivo, BALB/c male mice
Conditions: observations made from Table II
Method: Left ears were untreated. The thickness of both ears of each animal was measured with a Dyer model micrometer gauge 24 hours after oxazolone challenge, and the net increase in thickness of right ears versus left ears was calculated for each animal. Percent inhibition was calculated according to the formula: [(Iv−It)/Iv]×100, where Iv and It respectively refer to the average net increase in right ear thickness (mm) for vehicle and candidate compound treated mice.

## CC(C)c1c(C(=O)Nc2ccccc2)c(-c2ccccc2)c(-c2ccc(F)cc2)n1CC[C@@H]1C[C@@H](O)CC(=O)O1 [Atorvastatin lactone, atorvastatin lactone]
  anti-inflammatory activity in ear swelling assay, comparison in words: most potent anti-inflammatory activity
